According to patent US12419848B2, “Treatment of hyperinflammatory syndrome” (priority 2020, dated 2025):
Structures can show the parent of a compound that is named as a salt.

Columns and labels:
P2X7R = target: T1, P2X7R (Homo sapiens, UniProt Q99572); set-up: endogenous in cells; host or cells: human subjects (clinical trials reported elsewhere); conditions: administered orally; cited from earlier work
T1 sequence (Q99572 1-595): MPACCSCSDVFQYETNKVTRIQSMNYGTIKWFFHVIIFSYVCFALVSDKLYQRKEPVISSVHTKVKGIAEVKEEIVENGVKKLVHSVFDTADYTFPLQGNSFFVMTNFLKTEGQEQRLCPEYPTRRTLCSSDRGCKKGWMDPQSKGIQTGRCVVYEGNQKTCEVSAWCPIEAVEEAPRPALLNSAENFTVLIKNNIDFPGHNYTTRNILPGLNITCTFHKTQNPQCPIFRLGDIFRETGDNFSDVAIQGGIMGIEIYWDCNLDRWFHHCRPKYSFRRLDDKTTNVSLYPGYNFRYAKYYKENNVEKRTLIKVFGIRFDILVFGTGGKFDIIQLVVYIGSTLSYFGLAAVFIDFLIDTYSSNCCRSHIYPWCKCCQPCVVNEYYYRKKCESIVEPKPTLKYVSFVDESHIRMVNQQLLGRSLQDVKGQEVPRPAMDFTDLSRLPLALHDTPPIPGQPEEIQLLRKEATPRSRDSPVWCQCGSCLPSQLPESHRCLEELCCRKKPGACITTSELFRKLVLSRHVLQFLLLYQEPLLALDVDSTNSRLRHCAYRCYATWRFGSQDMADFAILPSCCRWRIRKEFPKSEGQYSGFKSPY

[1] = tested on: posttraumatic epileptic seizures; test: Example 21: posttraumatic epileptic seizures; format: in vivo, human
[2] = tested on: psoriatic arthritis, herpes zoster infection; test: Example 11: psoriatic arthritis with herpes zoster
[3] = tested on: chronic interstitial cystitis; test: Example 13: chronic interstitial cystitis; format: in vivo, human; conditions: for effect on symptoms (prior treatment): in vivo
[4] = tested on: idiopathic Parkinson's disease
COVID-19 [5] = test: Example 7: COVID-19 case; format: in vivo, human
Source text: On Mar. 24, 2020, a person developed cough, dyspnoea, myalgia, pain in hip and groin, shivers but no fever. A COVID-19 test was not performed. This occurred one week after closely working together with a colleague who developed proven severe COVID-19 requiring hospital admission.
On Jul. 12, 2020, (day 1) the patient developed new symptoms comprising shivers, joint pain (knees, hips, shoulders) and conjunctivitis of the left eye. They reported sick at work. The infection probably occurred on Jul. 1, 2020. On that day they met many people during their work at the office and in the evening they went for a drink in a bar with a few colleagues. The infection occurred despite social distancing and hand sanitising. At that time no one wore a face mask. […] On July 21 (day 10), 2020, the IgA antibody test for COVID-19 result was positive.
A few hours later a clinical deterioration occurred with extreme fatigue, chest pain and pain in the right upper arm. The treatment was converted to transdermal lidocaine cream. […] As much as 400 mg cream is applied over the skin and covered by Tegaderm transparent wound dressing. […] But after 6 hours the infusion rate was increased to 63 mg/hour (1 mg/kg/hr) due to persistent symptoms.
Day 85, after almost 3 weeks with no symptoms other than a fluctuating pain in the upper arm, the prickling sensations of the lung returned. SpO2 96%, HR 90/min, BP 95/68 mm Hg, temperature […]. […] Inhalation of the lidocaine solution was avoided.

[6] = Examples 1-6: safety (ECG, metHb, confusion); conditions: for Blood metHb: within the normal range
COVID-19 [7] = format: in vivo
[8] = tested on: renal function impairment; test: Example 16: advanced cervix carcinoma and renal dysfunction; format: in vivo, human; conditions: continuous subdermal 1 mg/kg/hr
terminal cancer patients = test: Example 17: diverse cancer, palliative; format: in vivo, human; conditions: for time to relief of pain, nausea and/or extreme fatigue: continuous subcutaneous 1 mg/kg/hr; for SIP68: 10 patients, before treatment 48 (range 18-68)
ALS = test: Example 18: amyotrophic lateral sclerosis; format: in vivo, human
ulcerative colitis = test: Example 27: ulcerative colitis; format: in vivo, human; conditions: oral CR 3×400 mg/d
myasthenia gravis = test: Example 24: myasthenia gravis; format: in vivo, human; conditions: oral 4×60 mg/d
Description: A person was diagnosed having myasthenia gravis. They suffered from muscle weakness of the arms and hand after physical activity. The diagnosis was confirmed with EMG and positive test for antibodies against acetylcholine receptor (AChR). They were treated with oral anticholinesterase drug (mestinon) 4×60 mg/d. […] The treatment was continued for 2 weeks.

rheumatoid arthritis = test: Example 30: rheumatoid arthritis; set-up: species or system human; conditions: in vivo

## O=C(NCC12CC3CC(CC(C3)C1)C2)c1cc(CCCNCCCO)ccc1Cl [AZD9056]
P2X7R
  outcome of oral administration: without great success

## COC[C@H](O)Cn1c(=O)cnn(-c2ccc(Cl)c(C(=O)NCC3(O)CCCCCC3)c2)c1=O [CE-224,535 500]
P2X7R
  outcome of oral administration: without great success

## CCN(CC)CC(=O)Nc1c(C)cccc1C [Lidocaine hydrochloride]
[1]; subdermal 1 mg/kg/hour
  EEG epileptic activity of the brain: had disappeared
[1]; subdermal 1 mg/kg/hour, 20 mg/ml solution
  time to disappearance of seizures: ≤ 30 min

## CN1CC[C@]23c4c5ccc(O)c4O[C@H]2[C@@H](O)C=C[C@H]3[C@H]1C5 [Morphine]
[2]; before lidocaine treatment
  effect on herpes zoster pain: did not subside the pain
[2]; in vivo
  side effect: developed obstipation

## COc1ccc2c3c1O[C@H]1C(=O)CC[C@@]4(O)[C@@H](C2)N(C)CC[C@]314 [Oxycodone]
[3]
  effect on symptoms (prior treatment): had no effect on their symptoms

## CN1C(=O)CN=C(c2ccccc2)c2cc(Cl)ccc21 [diazepam]
[1]; repeated 10 mg intravenous
  effect on generalised epileptic seizures: had no effect

## N[C@@H](Cc1ccc(O)c(O)c1)C(=O)O [levodopa]
[4]; in vivo
  side effect after increasing dosage: levodopa-induced chorea
[4]; initially, symptoms returned after 6 years
  symptoms (prior treatment): the symptoms improved clearly

## CCN(CC)CC(=O)Nc1c(C)cccc1C [lidocaine]
[3]; continuous subcutaneous 1 mg/kg/hr, after 2 days
  symptoms: practically free of symptoms
Polymyalgia rheumatica; nocturnal continuous subdermal 0.5 mg/kg/hr, 8 hours, 2 x/week
  symptoms: disappeared after the first treatment
Polymyalgia rheumatica; sublingual 2×60 mg/d
  time to disappearance of symptoms: ≤ 1 h
COVID-19 [5]; continuous subdermal 0.5 mg/kg/hr, after a few hours (March 2020)
  symptoms: practically free of symptoms
COVID-19 [5]; day 11, infusion 24 hours per day
  symptoms: improved gradually
COVID-19 [5]; day 12-13, subdermal 0.63 mg/kg/hr plus amoxicilline
  symptoms: improved significantly
COVID-19 [5]; day 18, subdermal 40 mg/hour, after 1 hour
  clinical improvement: clinical improvement was noticeable
COVID-19 [5]; day 18, subdermal 63 mg/hour (1 mg/kg/hr)
  symptoms: the symptoms disappeared with the exception of the pain in the upper arm
COVID-19 [5]; day 23, lidocaine infusion
  symptoms: reduced the symptoms to tolerable levels
COVID-19 [5]; day 46, continuous subdermal 0.63 mg/kg/hr
  time to improvement of symptoms: ≤ 30 min
COVID-19 [5]; day 61, continuous subdermal 0.63 mg/kg/hr
  symptoms: the symptoms subsided
COVID-19 [5]; from day 85, sublingual 3×100 mg/d
  time to disappearance of prickling sensations and oppressive feeling on chest: 20 min
COVID-19 [5]; reinitiated continuous subcutaneous infusion
  symptoms after relapse: subsided again
COVID-19 [5]; subdermal 0.63 mg/kg/hr, day 1 (Jul. 12, 2020)
  symptoms: improved within a few hours
COVID-19 [5]; subdermal infusion reinitiated Apr. 1, 2020, after a few days
  clinical condition: the clinical condition improved
[6]; Patient 1
  new ECG changes during treatment with lidocaine: No new ECG changes
  Blood metHb: 0.3-0.8%
[6]; Patient 2
  new ECG changes during treatment with lidocaine: No new ECG changes
  Blood metHb: 0.1-0.6%
[6]; Patient 2, day 22, on lidocaine
  signs of confusion after extubation: no signs of confusion
[6]; Patient 3
  new ECG changes during treatment with lidocaine: No new ECG changes
  Blood metHb: 0.1-0.4%
[6]; Patient 3, day 5
  signs of confusion after extubation: no signs of confusion
[6]; Patient 4
  new ECG changes during treatment with lidocaine: No new ECG changes
  signs of confusion after extubation: no signs of confusion
  Blood metHb: 0.1-0.3%
[6]; Patient 5
  new ECG changes during treatment with lidocaine: No new ECG changes
  Blood metHb: 0.1-0.3%
[6]; Patient 5, day 10
  signs of confusion after extubation: no signs of confusion
[6]; Patient 6
  new ECG changes during treatment with lidocaine: No new ECG changes
  Blood metHb: 0.1-0.3%
[6]; Patient 6, day 10
  signs of confusion after extubation: no signs of confusion
COVID-19 [7]; day 8, sublingual 3×60 mg/d
  all symptoms except dry mouth feelings and mild fatigue: disappeared completely
COVID-19 [7]; sublingual 5×60 mg, 24 hours after initiation
  runny nose, headache, neck pain and neck stiffness: disappeared
[8]
  renal function: improved
Terminal cancer patients; 7 of 10 patients
  time to relief of pain, nausea and/or extreme fatigue: ≤ 2 h
Terminal cancer patients; after 3 days
  SIP68: 33 (range 12-58)
Terminal cancer patients; after 7 days
  SIP68: 28 (range 12-56)
Terminal cancer patients; remaining patients
  time to relief of pain, nausea and/or extreme fatigue: ≤ 48 h
ALS; six months, sublingual 4×100 mg/d, before 4
  MRC muscle strength: Upper arm abduction left: 5
ALS; six months, before 1
  MRC muscle strength: Foot extension left: 2
  MRC muscle strength: Foot extension right: 2
ALS; six months, before 2
  MRC muscle strength: Foot flexion left: 3
  MRC muscle strength: Foot flexion right: 3
ALS; six months, before 4
  MRC muscle strength: Elbow flexion left: 4
  MRC muscle strength: Elbow flexion right: 4
  MRC muscle strength: Knee flexion left: 5
  MRC muscle strength: Knee flexion right: 5
  MRC muscle strength: Upper arm abduction right: 5
ALS; sublingual 4×100 mg/d, after one week
  muscle cramping: gradually disappeared

## Nc1ccc(O)c(C(=O)O)c1 [mesalamine]
Ulcerative colitis
  response of symptoms in this exacerbation: did not respond

## CN(C)C(=O)Oc1ccc[n+](C)c1 [mestinon]
Myasthenia gravis
  efficacy during influenza A infection: no longer effective

## CN(Cc1cnc2nc(N)nc(N)c2n1)c1ccc(C(=O)N[C@@H](CCC(=O)O)C(=O)O)cc1 [methotrexate]
Rheumatoid arthritis
  effect on symptoms (prior treatment): did not improve the symptoms

## CC(=O)Nc1ccc(O)cc1 [paracetamol]
[3]
  effect on symptoms (prior treatment): had no effect on their symptoms

## tocilizumab: disease-modifying antirheumatic drug
Rheumatoid arthritis
  effect on symptoms (prior treatment): did not improve the symptoms
